In US20090286869A1, “Flavanols and B-Type Procyanidins and Inflammation” (Mars, Inc., priority 2005, published 2009):
“Also recorded” adds a separate entry of the source.

What was measured:
[1] = tested on: COX-2 mRNA; experiment: RT-PCR of COX-2 mRNA in LPS and fMLP-treated U937-derived macrophages; type: cell-based, human; settings: 10 μM each; for inhibition of the mRNA expression of COX-2: 2 h pretreatment before LPS 1 μg/ml priming or fMLP 10 μM stimulation, FIGS. 4 A-C; for order of suppression potency of the COX-2 mRNA expression induced by LPS and fMLP: FIG. 4C
Procedure: The human monocyte line U937 was obtained from the cell bank in Shanghai Institute of Biological Sciences, Chinese Academy of Sciences. Monocytic cells of 3-4 passages were grown to confluence in RPMI 1640 (GIBCO-BRL, Glasgow, Scotland) containing 10% fetal bovine serum at 37° C. in a 5% CO2 humidified incubator during all experimental procedures. Macrophages were pretreated with procyanidins B1 dimer, B2 dimer, A1 dimer, and flavanols (−)-catechin and (+)-epicatechin (each 10) for 2 h before LPS (1 μg·ml^−1) priming or fMLP (10 μM) stimulation for 2 h. The normal macrophages without LPS or fMLP treatment were considered as controls. They were then differentiated to macrophages in the medium containing 100 nM PMA and allowed to adhere for 48 h, after which they were fed with PMA-free medium and cultured for 24 h prior to use. Cells from different groups were collected and total RNA was prepared with TRI-REAGENT-LS extraction kit The expression of RNAs was determined by RT-PCR. Complementary DNA was created from RNA using TrueScript MMLV reverse transcriptase and oligo d (T) 18 primers. 5 μg RNA was included in each reaction.
The data are presented as means±SD and compared with ANOVA and least significant difference test using SPSS statistical program. The level of the statistical significance was set at P<0.05.

[2] = tested on: COX-2 mRNA; experiment: Real-time quantitative RT-PCR of COX-2 mRNA in LPS-treated differentiated THP-1 cells; type: cell-based, human; settings: differentiated THP-1 cells exposed to dimer B2 and LPS 1 μg/ml for 4 h; FIG. 1
Procedure: (§1) Human monocytic THP-1 cells from acute monocytic leukemia (American Type Culture Collection, Manassas, Va.) in RPMI 1640 medium (Life Technologies, Rockville, Md.), with 4.5 g/L glucose, 10 nM HEPES, 1 mM sodium pyruvate, and 50 μM 2-ME supplemented with 10% FBS, were cultured under a humidified 5% CO2 atmosphere at 37° C. For differentiation, THP-1 cells were plated at 1×10^6 cells/ml in the medium containing 100 nM PMA and allowed to adhere for 48 h, after which they were fed with PMA-free medium and cultured for 24 h prior to use. LPS was used at concentration of 1 μg/ml in the medium. sf9 cells were cultured in monolayer at 28° C. in Grace's supplemented medium with 10% heat-inactivated fetal bovine serum.
Total RNA was extracted from macropahges with TRIzol reagent (Invitrogen Corporation, Carlsbad, Calif.). Real-time quantitative RT-PCR was performed using the Opticon 2 (MJ Research Inc., Waltham, Mass.). Sequence specific PCR primers for COX-2 [accession no. NM_000963; forward primer: 5′-[…]-3′ [SEQ ID NO: 1]; reverse primer: 5′-[…]-3′ [SEQ ID NO: 2]] and GAPDH [accession no. NM_002046; forward primer: 5′-[…]-3′ [SEQ ID NO: 3]; reverse primer: 5′-[…]-3′ [SEQ ID NO: 4]] were designed using the Primer Premier software version 5.00. Standard curves were run on the same plate and the relative standard curve method was used to calculate the relative gene expression. […]

[3] = tested on: COX-2 protein expression; experiment: Western blot of LPS-induced COX-2 protein expression in THP-1 cells; type: cell-based, human; settings: 50 μM, 30 min pretreatment with B2 followed by 4 hour LPS treatment
Procedure: as §1
5×10^6 cells were resuspended in modified RIPA lysis buffer (Tris-HCl 50 mM, pH 7.4 NaCl 150 mM, EDTA 1 mM, Na-deoxycholate 0.25%, NP-40 1%, PMSF 1 mM, Na3VO4 1 mM, NaF 1 mM, Aprotinin 10 μg/ml, leupeptin 5 μg/ml, pepstatin 5 μg/ml), and lysed cells on ice for 45 min. The lysate was centrifuged at 14,000×g for 15 min to sediment the particulate materials. The protein concentration of the supernatant was measured by the method of Lowry (Lowry et al., J. Biol. Chem. 193:265-267, 1951). Samples were electrophoresed in SDS/PAGE gels and separated proteins were transferred onto a PVDF membrane. […]

[4] = biological target: T1, recombinant human COX-2 enzyme (Homo sapiens, UniProt P35354); experiment: Determination of COX-2 enzyme activity (PGE2 RIA, baculovirus-expressed enzyme in sf9 cells); type: biochemical; settings: baculovirus-expressed human recombinant COX-2; 10 μmol/L arachidonic acid; FIG. 3
T1 construct: made in house; host or cells: sf9 insect cells infected with hCOX-2 recombinant baculovirus
T1 sequence (P35354 18-604): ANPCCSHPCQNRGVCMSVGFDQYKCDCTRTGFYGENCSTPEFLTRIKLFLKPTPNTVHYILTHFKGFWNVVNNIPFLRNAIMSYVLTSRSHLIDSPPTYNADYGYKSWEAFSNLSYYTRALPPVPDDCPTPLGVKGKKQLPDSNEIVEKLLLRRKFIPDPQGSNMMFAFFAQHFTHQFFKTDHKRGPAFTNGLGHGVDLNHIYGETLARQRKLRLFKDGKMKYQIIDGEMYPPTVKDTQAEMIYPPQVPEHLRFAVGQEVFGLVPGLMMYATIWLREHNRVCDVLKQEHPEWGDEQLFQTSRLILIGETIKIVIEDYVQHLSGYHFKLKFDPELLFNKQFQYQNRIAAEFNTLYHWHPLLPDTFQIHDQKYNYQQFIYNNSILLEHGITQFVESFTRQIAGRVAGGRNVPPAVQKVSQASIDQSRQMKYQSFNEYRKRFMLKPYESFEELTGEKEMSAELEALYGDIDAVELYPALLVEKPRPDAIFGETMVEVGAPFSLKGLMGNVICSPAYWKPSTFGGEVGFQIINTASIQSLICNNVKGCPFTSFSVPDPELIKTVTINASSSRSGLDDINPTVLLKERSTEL
Procedure: The effect of procyanidin dimer B2 and NS398, a selective COX-2 inhibitor (positive control), on the activity of COX-2 was measured using baculovirus-expressed recombinant human COX-2 enzyme as previously described (Zhang et al., Acta. Pharmacol. Sin. 25(8):1000-1006, 2004). Briefly, 24 h after infecting sf9 cells with hCOX-2 recombinant baculovirus, the cells were collected and washed in HHBS. The assays were performed as follows. One milliliter of Hank's solution containing 1×10^5 COX-2 expressing cells plus 9×10^5 uninfected sf9 cells was dispensed per well of 24-well polypropylene plates. B2, NS398, or DMSO vehicle (10 μL) was added to the appropriate well containing the cell suspension. Following a 15-min drug or DMSO preincubation at 37° C., the cells were challenged with 10 μmol/L arachidonic acid
(Sigma) in ethanol and incubated for 10 min. Reactions were terminated by the addition of 100 μL of 1 mol/L HCl, neutralized with 100 μL of 1 mol/L NaOH. The cells were pelleted for 10 min at 300×g and the levels of PGE2 in the supernatant were determined by a PGE2-specific RIA (Beijing East Asia Institute of Immunology). The concentration of PGE2 was then determined by interpolation from a standard curve and inhibition calculated by comparison of the PGE2 production by drug-treated cells (B2 and NS398) with that of DMSO-treated cells.

Compound | inhibition of the mRNA expression of COX-2 [1] | order of suppression potency of the COX-2 mRNA expression induced by LPS and fMLP [1] | levels of mRNA for COX-2 (COX-2 transcription) [2] | LPS-induced COX-2 protein expression ([3]; FIG. 2) | LPS-induced COX-2 protein expression ([3]; FIG. 2, listed as 132) | effect on PGE2 synthesis (COX-2 enzyme activity) [4]
Oc1cc(O)c2c(c1)O[C@@H](c1ccc(O)c(O)c1)[C@@H](O)C2 [(+)-epicatechin] | significant inhibition | (−)-catechin, (+)-epicatechin >B1, B2>A1 |  |  |  | 
Oc1cc(O)c2c(c1)OC1(c3ccc(O)c(O)c3)Oc3cc(O)c4c(c3C2C1O)OC(c1ccc(O)c(O)c1)C(O)C4 (centres unmarked) [A1, reference compound] | significant inhibition | (−)-catechin, (+)-epicatechin >B1, B2>A1 |  |  |  | 
Oc1cc(O)c2c(c1)O[C@H](c1ccc(O)c(O)c1)[C@H](O)[C@H]2c1c(O)cc(O)c2c1O[C@H](c1ccc(O)c(O)c1)[C@@H](O)C2 [B1, (−)-epicatechin-(4β-8)-(+)-catechin] | significant inhibition | (−)-catechin, (+)-epicatechin >B1, B2>A1 |  |  |  | 
Oc1cc(O)c2c(c1)O[C@H](c1ccc(O)c(O)c1)[C@H](O)[C@H]2c1c(O)cc(O)c2c1O[C@H](c1ccc(O)c(O)c1)[C@H](O)C2 [B2, (−)-epicatechin-(4β-8)-(−)-epicatechin] | significant inhibition | (−)-catechin, (+)-epicatechin >B1, B2>A1 | inhibitory effect; also recorded: reduced in a concentration-dependent manner | inhibited | inhibitory effect | not inhibited; also recorded: no inhibitory effect
(−)-catechin | significant inhibition | (−)-catechin, (+)-epicatechin >B1, B2>A1 |  |  |  | 
